Test results from paper PMC6429262, “Design and Synthesis of Novel Anti-Proliferative Emodin Derivatives and Studies on their Cell Cycle Arrest, Apoptosis Pathway and Migration” (Molecules, 2019).

Columns and labels:
MCF-7 cells = assay: CellTiter-Glo Luminescent Cell Viability Assay, MCF-7; format: cell-based, human; conditions: MCF-7 cells, 48 h, mean of three independent experiments
Protocol: (§1) The in vitro anti-proliferative activities of all the novel synthesized compounds were evaluated against HepG2 cells and MCF-7 cells by CellTiter-Glo® Luminescent Cell Viability Assay, using paclitaxel (a clinically used drug) as a positive control. Emodin (1) and compound 2 were also included for comparison.
(§2) HepG2 cells and MCF-7 cells were purchased from American Type Culture Collection (ATCC, Manassas, VA, USA). Cells were cultured in T75 flask (430641, Corning, New York, NY, USA), supplemented with high-glucose DMEM medium (Dulbecco’s modified Eagle’s medium, 11965-092, Gibco, New York, NY, USA) containing 10% Fetal bovine serum (FBS) and 1% penicillin (100 units/mL)-streptomycin (100 µg/mL) in a humidified incubator at 37 °C under 5% CO2 and 95% relative humidity (RH) atmosphere. The cells were harvested for metabolomics experiments using cell scrapers.
(§3) HepG2 cells and MCF-7 cells in 40 µL DMEM supplemented with 10% FBS were seeded at a density of 500 cells/well in 384-well cell culture plate (3570, Corning), respectively. After 24 h, the medium was substituted with fresh medium containing various sample solutions in DMSO (0.5%, v/v) at a dose range of 0.14–100 µM with 3-fold serial dilutions, and cells were cultured for another 48 h. Cells were cultured in medium without samples but 0.5% DMSO served as a control. All measurements were determined in triplicate for each treatment. After the sample treatment for 48 h, 20 µL CellTiter-Glo (G7573, Promega, Fitchburg, WI, USA) was added to each well containing cells and the contents were mixed for 2 min on an orbital shaker to induce cell lysis. The plates were then incubated at room temperature for 20 min to stabilize the luminescent signal. The luminescence was recorded on an Envision 2014 (Perkin Elmer, Waltham, MA, UAS). The IC50 values represented the samples’ concentrations required to inhibit 50% of cell proliferation and were calculated from a calibration curve by linear regression using GraphPad Prism 7.0 software (GraphPad Software, San Diego, CA, USA).

HepG2 cells = assay: CellTiter-Glo Luminescent Cell Viability Assay, HepG2; format: cell-based, human; conditions: HepG2 cells, 48 h, mean of three independent experiments
Protocol: as §1, §2, §3

Cc1cc(O)c2c(c1)C(=O)c1cc(OCCOCCOCCOC(=O)[C@H](C)N)cc(O)c1C2=O [Compound 7j, (S)-1-(2-(2-(2-(4,5-Dihydroxy-7-methyl-9,10-dioxo-9,10-dihydroanthracen-2-yloxy)ethoxy)ethoxy)ethoxy)-1-oxopropan-2-aminium 2,2,2-trifluoroacetate]
IC50 (MCF-7 cells; Homo sapiens, MCF7, 48 h): 25.6 ± 0.58 µM
IC50 (HepG2 cells; Homo sapiens, HepG2, 48 h): 31.9 ± 2.77 µM

Cc1cc(O)c2c(c1)C(=O)c1cc(OCCOC(=O)[C@@H](N)c3ccccc3)cc(O)c1C2=O [Compound 3r, (S)-2-(2-(4,5-Dihydroxy-7-methyl-9,10-dioxo-9,10-dihydroanthracen-2-yloxy)ethoxy)-2-oxo-1-phenyl-ethanaminium 2,2,2-trifluoroacetate]
IC50 (MCF-7 cells; Homo sapiens, MCF7, 48 h): 25.7 ± 0.61 µM
IC50 (HepG2 cells; Homo sapiens, HepG2, 48 h): 19.3 ± 1.08 µM

Cc1cc(O)c2c(c1)C(=O)c1cc(OCCOC(=O)C3(N)CCCC3)cc(O)c1C2=O [Compound 3n, 1-((2-(4,5-Dihydroxy-7-methyl-9,10-dioxo-9,10-dihydroanthracen-2-yloxy)ethoxy)carbonyl)cyclopentan-aminium 2,2,2-trifluoroacetate]
IC50 (MCF-7 cells; Homo sapiens, MCF7, 48 h): 23.5 ± 1.93 µM
IC50 (MCF-7 cells): 18.5 ± 1.93 µM
IC50 (HepG2 cells): 17.5 ± 0.59 µM
IC50 (HepG2 cells; Homo sapiens, HepG2, 48 h): 12.5 ± 0.59 µM

Cc1cc(O)c2c(c1)C(=O)c1cc(OCCOC(=O)[C@H]3CCCN3)cc(O)c1C2=O [Compound 3o, (R)-2-((2-(4,5-Dihydroxy-7-methyl-9,10-dioxo-9,10-dihydroanthracen-2-yloxy)ethoxy)carbonyl)-pyrrolidinium 2,2,2-trifluoroacetate]
IC50 (MCF-7 cells; Homo sapiens, MCF7, 48 h): 17.6 ± 0.29 µM
IC50 (HepG2 cells; Homo sapiens, HepG2, 48 h): 17.6 ± 0.43 µM

Cc1cc(O)c2c(c1)C(=O)c1cc(OCCOCCOCCOCCOC(=O)[C@@H](C)N)cc(O)c1C2=O [Compound 7k, (R)-1-(4,5-Dihydroxy-7-methyl-9,10-dioxo-9,10-dihydroanthracen-2-yloxy)-13-oxo-3,6,9,12-tetraoxapenta-decan-14-aminium 2,2,2-trifluoroacetate]
IC50 (MCF-7 cells; Homo sapiens, MCF7, 48 h): 37.8 ± 2.44 µM
IC50 (HepG2 cells; Homo sapiens, HepG2, 48 h): 37.2 ± 2.44 µM

CSCC[C@H](N)C(=O)OCCOc1cc(O)c2c(c1)C(=O)c1cc(C)cc(O)c1C2=O [Compound 3i, (S)-1-(2-(4,5-Dihydroxy-7-methyl-9,10-dioxo-9,10-dihydroanthracen-2-yloxy)ethoxy)-4-(methylthio)-1-oxobutan-2-aminium 2,2,2-trifluoroacetate]
IC50 (MCF-7 cells; Homo sapiens, MCF7, 48 h): 17.2 ± 0.41 µM
IC50 (HepG2 cells; Homo sapiens, HepG2, 48 h): 17.2 ± 0.2 µM

Cc1cc(O)c2c(c1)C(=O)c1cc(OCCOCCOC(=O)[C@@H](C)N)cc(O)c1C2=O [Compound 7g, (R)-1-(2-(2-(4,5-Dihydroxy-7-methyl-9,10-dioxo-9,10-dihydroanthracen-2-yloxy)ethoxy)ethoxy)-1-oxo-propan-2-aminium 2,2,2-trifluoroacetate]
IC50 (MCF-7 cells; Homo sapiens, MCF7, 48 h): 12.6 ± 0.46 µM
IC50 (HepG2 cells; Homo sapiens, HepG2, 48 h): 15.2 ± 0.66 µM

Cc1cc(O)c2c(c1)C(=O)c1cc(OCCOCCOC(=O)[C@H](C)N)cc(O)c1C2=O [Compound 7h, (S)-1-(2-(2-(4,5-Dihydroxy-7-methyl-9,10-dioxo-9,10-dihydroanthracen-2-yloxy)ethoxy)ethoxy)-1-oxo-propan-2-aminium 2,2,2-trifluoroacetate]
IC50 (MCF-7 cells; Homo sapiens, MCF7, 48 h): 12.5 ± 0.44 µM
IC50 (HepG2 cells; Homo sapiens, HepG2, 48 h): 11.4 ± 0.47 µM

CCC(C)[C@H](N)C(=O)OCCOc1cc(O)c2c(c1)C(=O)c1cc(C)cc(O)c1C2=O (stereo partly drawn) [Compound 3h, (2S)-1-(2-(4,5-dihydroxy-7-methyl-9,10-dioxo-9,10-dihydroanthracen-2-yloxy)ethoxy)-3-methyl-1-oxo-pentan-2-aminium 2,2,2-trifluoroacetate]
IC50 (MCF-7 cells; Homo sapiens, MCF7, 48 h): 12.8 ± 1.05 µM
IC50 (HepG2 cells; Homo sapiens, HepG2, 48 h): 14.4 ± 0.27 µM

Cc1cc(O)c2c(c1)C(=O)c1cc(OCCOC(=O)[C@@H](C)N(C)C)cc(O)c1C2=O [Compound 5a, (R)-1-(2-(4,5-Dihydroxy-7-methyl-9,10-dioxo-9,10-dihydroanthracen-2-yloxy)ethoxy)-N,N-dimethyl-1-oxo-propan-2-aminium 2,2,2-trifluoroacetate]
IC50 (MCF-7 cells; Homo sapiens, MCF7, 48 h): 25.2 ± 1.92 µM
IC50 (HepG2 cells; Homo sapiens, HepG2, 48 h): 18.1 ± 2.79 µM

Cc1cc(O)c2c(c1)C(=O)c1cc(OCCCCOC(=O)[C@@H](C)N)cc(O)c1C2=O [Compound 7c, (R)-1-(4-(4,5-Dihydroxy-7-methyl-9,10-dioxo-9,10-dihydroanthracen-2-yloxy)butoxy)-1-oxopropan-2-aminium 2,2,2-trifluoroacetate]
IC50 (MCF-7 cells; Homo sapiens, MCF7, 48 h): 12.7 ± 0.55 µM
IC50 (HepG2 cells; Homo sapiens, HepG2, 48 h): 11.4 ± 1.69 µM

Cc1cc(O)c2c(c1)C(=O)c1cc(OCCCOC(=O)[C@H](C)N)cc(O)c1C2=O [Compound 7b, (S)-1-(3-(4,5-Dihydroxy-7-methyl-9,10-dioxo-9,10-dihydroanthracen-2-yloxy)propoxy)-1-oxopropan-2-aminium 2,2,2-trifluoroacetate]
IC50 (MCF-7 cells; Homo sapiens, MCF7, 48 h): 6.47 ± 0.18 µM
IC50 (HepG2 cells; Homo sapiens, HepG2, 48 h): 6.47 ± 0.21 µM

Cc1cc(O)c2c(c1)C(=O)c1cc(OCCOC(=O)[C@H](C)N(C)C)cc(O)c1C2=O [Compound 5b, (S)-1-(2-(4,5-Dihydroxy-7-methyl-9,10-dioxo-9,10-dihydroanthracen-2-yloxy)ethoxy)-N,N-dimethyl-1-oxo-propan-2-aminium 2,2,2-trifluoroacetate]
IC50 (MCF-7 cells; Homo sapiens, MCF7, 48 h): 16.2 ± 0.67 µM
IC50 (HepG2 cells; Homo sapiens, HepG2, 48 h): 18.6 ± 2.07 µM

Cc1cc(O)c2c(c1)C(=O)c1cc(OCCOC(=O)[C@@H](N)c3ccc(O)cc3)cc(O)c1C2=O [Compound 3t, (S)-2-(2-(4,5-Dihydroxy-7-methyl-9,10-dioxo-9,10-dihydroanthracen-2-yloxy)ethoxy)-1-(4-hydroxyphenyl)-2-oxoethanaminium 2,2,2-trifluoroacetate]
IC50 (MCF-7 cells; Homo sapiens, MCF7, 48 h): 39.6 ± 1.97 µM
IC50 (HepG2 cells; Homo sapiens, HepG2, 48 h): 26.1 ± 1.44 µM

Cc1cc(O)c2c(c1)C(=O)c1cc(OCCOC(=O)[C@H](N)c3ccc(O)cc3)cc(O)c1C2=O [Compound 3s, (R)-2-(2-(4,5-Dihydroxy-7-methyl-9,10-dioxo-9,10-dihydroanthracen-2-yloxy)ethoxy)-1-(4-hydroxyphenyl)-2-oxoethanaminium 2,2,2-trifluoroacetate]
IC50 (MCF-7 cells; Homo sapiens, MCF7, 48 h): 25.9 ± 1.09 µM
IC50 (HepG2 cells; Homo sapiens, HepG2, 48 h): 18.5 ± 0.55 µM

Cc1cc(O)c2c(c1)C(=O)c1cc(OCCOC(=O)[C@H](N)Cc3ccccc3)cc(O)c1C2=O [Compound 3w, (R)-1-(2-(4,5-Dihydroxy-7-methyl-9,10-dioxo-9,10-dihydroanthracen-2-yloxy)ethoxy)-1-oxo-3-phenyl-propan-2-aminium 2,2,2-trifluoroacetate]
IC50 (MCF-7 cells; Homo sapiens, MCF7, 48 h): 42.4 ± 1.16 µM
IC50 (HepG2 cells; Homo sapiens, HepG2, 48 h): 31.5 ± 2.72 µM

Cc1cc(O)c2c(c1)C(=O)c1cc(OCCCCOC(=O)[C@H](C)N)cc(O)c1C2=O [Compound 7d, (S)-1-(4-(4,5-Dihydroxy-7-methyl-9,10-dioxo-9,10-dihydroanthracen-2-yloxy)butoxy)-1-oxopropan-2-aminium 2,2,2-trifluoroacetate]
IC50 (MCF-7 cells; Homo sapiens, MCF7, 48 h): 14.9 ± 0.57 µM
IC50 (HepG2 cells; Homo sapiens, HepG2, 48 h): 11 ± 1.47 µM

Cc1cc(O)c2c(c1)C(=O)c1cc(OCCOC(=O)[C@H](N)c3ccccc3)cc(O)c1C2=O [Compound 3q, (R)-2-(2-(4,5-Dihydroxy-7-methyl-9,10-dioxo-9,10-dihydroanthracen-2-yloxy)ethoxy)-2-oxo-1-phenyl-ethanaminium 2,2,2-trifluoroacetate]
IC50 (MCF-7 cells; Homo sapiens, MCF7, 48 h): 28.5 ± 1.74 µM
IC50 (HepG2 cells; Homo sapiens, HepG2, 48 h): 25.9 ± 0.48 µM

Cc1cc(O)c2c(c1)C(=O)c1cc(OCCO)cc(O)c1C2=O [Compound 2, 1,8-Dihydroxy-3-(2-hydroxyethoxy)-6-methylanthracene-9,10-dione]
IC50 (MCF-7 cells; Homo sapiens, MCF7, 48 h): 86.4 ± 3.98 µM
IC50 (HepG2 cells; Homo sapiens, HepG2, 48 h): 64.1 ± 2.37 µM

Cc1cc(O)c2c(c1)C(=O)c1cc(OCCOC(=O)[C@@H]3CCCN3)cc(O)c1C2=O [Compound 3p, (S)-2-((2-(4,5-Dihydroxy-7-methyl-9,10-dioxo-9,10-dihydroanthracen-2-yloxy)ethoxy)carbonyl)-pyrrolidinium 2,2,2-trifluoroacetate]
IC50 (MCF-7 cells; Homo sapiens, MCF7, 48 h): 20 ± 1.82 µM
IC50 (HepG2 cells; Homo sapiens, HepG2, 48 h): 19 ± 0.6 µM

Cc1cc(O)c2c(c1)C(=O)c1cc(OCCOC(=O)CN)cc(O)c1C2=O [Compound 3a, 2-(2-(4,5-Dihydroxy-7-methyl-9,10-dioxo-9,10-dihydroanthracen-2-yloxy)ethoxy)-2-oxoethanaminium 2,2,2-trifluoroacetate]
IC50 (MCF-7 cells; Homo sapiens, MCF7, 48 h): 66.9 ± 1.65 µM
IC50 (HepG2 cells; Homo sapiens, HepG2, 48 h): 22.7 ± 0.78 µM

(S)-1-(2-(4,5-Dihydroxy-7-methyl-9,10-dioxo-9,10-dihydroanthracen-2-yloxy)ethoxy)-3-(4-hydroxyphenyl)-1-oxopropan-2-aminium 2,2,2-trifluoroacetate [Compound 3z]
IC50 (MCF-7 cells): 17.3 ± 0.26 µM
IC50 (HepG2 cells): 14.1 ± 1.22 µM

Cc1cc(O)c2c(c1)C(=O)c1cc(OCCOC(=O)[C@@H](N)CC(C)C)cc(O)c1C2=O [Compound 3g, (S)-1-(2-(4,5-Dihydroxy-7-methyl-9,10-dioxo-9,10-dihydroanthracen-2-yloxy)ethoxy)-4-methyl-1-oxopentan-2-aminium 2,2,2-trifluoroacetate]
IC50 (MCF-7 cells; Homo sapiens, MCF7, 48 h): 16.1 ± 0.23 µM
IC50 (HepG2 cells; Homo sapiens, HepG2, 48 h): 15.9 ± 0.33 µM

CC(=O)O[C@H]1C(=O)[C@@]2(C)[C@H]([C@H](OC(=O)c3ccccc3)[C@]3(O)C[C@H](OC(=O)[C@H](O)[C@@H](NC(=O)c4ccccc4)c4ccccc4)C(C)=C1C3(C)C)[C@]1(OC(C)=O)CO[C@@H]1C[C@@H]2O [Paclitaxel, reference compound]
IC50 (MCF-7 cells; Homo sapiens, MCF7, 48 h): 4.89 ± 0.11 µM
IC50 (HepG2 cells; Homo sapiens, HepG2, 48 h): 10.3 ± 0.26 µM
